According to patent US10399932B2, “Inhibitors of indoleamine-2,3-dioxygenase for the treatment of cancer” (BRISTOL-MYERS SQUIBB COMPANY, priority 2015, dated 2019):

Target: human IDO1 (Homo sapiens, UniProt P14902)
Test: Assessment of human IDO-1 inhibitory activity in Hela cells (Interferon-gamma activated, Ehrlich reagent, absorbance at 490 nm)
Type: cell-based
Design: endogenous in cells; host or cells: HeLa cells stimulated with interferon-gamma
Conditions: 18 hours
Method: Exemplary compounds were tested for inhibition of IDO activity.
HeLa cells were seeded at 20,000 cells per 30 µL per well with RPMI/phenol red free media containing 10% FBS in a 384-well tissue culture plate (black with clear bottoms). 50 nL of compound was added to cells and incubated at 37° C. for one hour. 20 μL of the recombinant human Interferon-gamma (R&D System, Cat. #285-IF, at final concentration of 10 ng/ml) or recombinant murine Interferon-gamma (PEPROTECH® Inc., Cat. #315-05, final concentration of 5 ng/ml) was added to activate IDO signaling. The cells were incubated for 18 hours in 37° C. incubator with 5% CO2.
Compound treatment was stopped by adding 5 μl trichloroacetic acid to a final concentration of 3%. Subsequently, the cell plate was further incubated at 50° C. for 30 minute. An equal volume supernatant (20 μL) and 2% (w/v) Ehrlich reagent (4-dimethylaminobenzaldehyde) in glacial acetic acid were mixed in a new clear bottom 384-well plate. This plate was incubated at room temperature for 30 minutes. Absorbance at 490 nm was measured on Envision plate reader.
Compound IC50 values were calculated using counts from unstimulated (no INF-gamma treatment) wells as 100% inhibition. INF-gamma treatment without compound treatment as 0% inhibition.

human IDO1, sequence (P14902 whole entry): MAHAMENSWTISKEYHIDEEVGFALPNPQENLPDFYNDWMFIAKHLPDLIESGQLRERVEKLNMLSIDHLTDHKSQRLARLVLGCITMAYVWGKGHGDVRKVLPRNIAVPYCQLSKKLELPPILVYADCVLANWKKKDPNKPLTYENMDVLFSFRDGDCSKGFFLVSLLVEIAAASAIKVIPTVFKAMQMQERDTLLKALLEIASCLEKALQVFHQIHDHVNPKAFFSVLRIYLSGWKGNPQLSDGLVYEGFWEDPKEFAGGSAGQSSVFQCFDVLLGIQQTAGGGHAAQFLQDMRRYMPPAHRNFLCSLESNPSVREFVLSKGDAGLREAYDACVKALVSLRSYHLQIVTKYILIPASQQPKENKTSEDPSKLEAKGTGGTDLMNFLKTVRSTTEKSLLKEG

Compound | IC50
3-(3-((4-cyanophenyl)amino)-4-(ethyl (tetrahydro-2H-pyran-4-yl)amino) phenyl)-3-methylpentanoic acid [Example 27] | < 5 nM
3-(4-((1,1-dioxidotetrahydro-2H-thiopyran-4-yl)(ethyl)amino)-3-((4-fluorophenyl)amino)phenyl)-4-isopropoxybutanoic acid [Example 340] | < 50 nM
3-(5-((4-chlorophenyl) amino)-4-(ethyl(tetrahydro- 2H-pyran-4-yl)amino)-2- fluorophenyl)-4- methoxybutanoic acid [Example 852] | < 50 nM
COCC(CC(=O)O)c1ccc(N2C[C@@H](C)O[C@@H](C)C2)c(Nc2ccc(C#N)cc2)c1 (single isomer, unassigned) [602 E2] | > 50 nM
CCOc1ncc(Nc2cc(C(CC)CC(=O)O)ccc2N(CC)C2CCOC2)cn1 (single isomer, unassigned) [947 D1] | < 50 nM
CCOc1ncc(Nc2cc(C(CC)CC(=O)O)ccc2N(CC)C2CCOC2)cn1 (single isomer, unassigned) [947 D2] | < 50 nM
CCC(CC(=O)O)c1ccc(N(CC)C2CCOC2)c(NC(=O)Nc2ccc(Cl)cc2F)c1 (single isomer, unassigned) [948 D1] | < 50 nM
CCC(CC(=O)O)c1ccc(N(CC)C2CCOC2)c(NC(=O)Nc2ccc(Cl)cc2F)c1 (single isomer, unassigned) [948 D2] | < 50 nM
CCOc1ncc(Nc2cc(C(CC)CC(=O)O)ccc2N2CCOCC2)cn1 (single isomer, unassigned) [Example 7 Enantiomer 1, 3-(3-((2-Ethoxypyrimidin-5-yl)amino)-4-morpholinophenyl)pentanoic acid] | > 50 nM
CCCN(c1ccc(C(CC)CC(=O)O)cc1Nc1ccc(C#N)cc1)C1CCS(=O)(=O)CC1 (single isomer, unassigned) [Example 12 Enantiomer 2, 3-(3-((4-Cyanophenyl)amino)-4-((1,1-dioxidotetrahydro-2H-thiopyran-4-yl)(propyl)amino)phenyl)pentanoic acid] | < 5 nM
CCCN(c1ccc(C(CC)CC(=O)O)cc1Nc1cnc(OCC)nc1)C1CCS(=O)(=O)CC1 (single isomer, unassigned) [Example 13 Enantiomer 2, 3-(4-((1,1-Dioxidotetrahydro-2h-thiopyran-4-yl)(propyl)amino)-3-((2-ethoxypyrimidin-5-yl)amino)phenyl)pentanoic acid] | < 50 nM
CCCN(c1ccc(C(CC)CC(=O)O)cc1NC(=O)Nc1ccc(C)cc1)C1CCS(=O)(=O)CC1 (single isomer, unassigned) [Example 14 Enantiomer 2, 3-(4-((1,1-Dioxidotetrahydro-2h-thiopyran-4-yl)(propyl)amino)-3-(3-(p-tolyl)ureido)phenyl)pentanoic acid] | > 50 nM
CCN(c1ccc(C(CC(=O)O)C2CC2)cc1Nc1ccc(Cl)cc1)C1CCOCC1 (single isomer, unassigned) [Example 33 Enantiomer 2, 3-(3-((4-Chlorophenyl)amino)-4-(ethyl(tetrahydro-2H-pyran-4-yl)amino)phenyl)-3-cyclopropylpropanoic acid] | < 5 nM
CCN(c1ccc(C(CC(=O)O)C2CC2)cc1Nc1cnc(OC)nc1)C1CCOCC1 (single isomer, unassigned) [Example 38, 3-cyclopropyl-3-(4-(ethyl(tetrahydro-2H-pyran-4-yl)amino)-3-((2-methoxypyrimidin-5-yl)amino)phenyl) propanoic acid] | < 50 nM
CCOc1ncc(Nc2cc(C(CC(=O)O)C3CC3)ccc2N(CC)C2CCOCC2)cn1 (single isomer, unassigned) [Example 39, 3-cyclopropyl-3-(3-((2-ethoxypyrimidin-5-yl)amino)-4-(ethyl(tetrahydro-2H-pyran-4-yl)amino)phenyl)propanoic acid] | < 50 nM
CCC(CC(=O)O)c1ccc(N2CCC(C)CC2)c(Nc2ccc(C#N)cc2)c1 (single isomer, unassigned) [Example 41 Enantiomer 2, 3-(3-((4-Cyanophenyl)amino)-4-(4-methylpiperidin-1-yl)phenyl)pentanoic acid] | < 50 nM
CCC(CC(=O)O)c1ccc(N2CCC(C)CC2)c(Nc2cnc(OC)nc2)c1 (single isomer, unassigned) [Example 44, 3-(3-((2-methoxypyrimidin-5-yl)amino)-4-(4-methylpiperidin-1-yl)phenyl) pentanoic acid] | > 50 nM

Compound | IC50
CCOc1ncc(Nc2cc(C(CC)CC(=O)O)ccc2N2CCC(C)CC2)cn1 (single isomer, unassigned) [Example 45, 3-(3-((2-ethoxypyrimidin-5-yl)amino)-4-(4-methylpiperidin-1-yl)phenyl)pentanoic acid] | > 50 nM
CCC(CC(=O)O)c1ccc(N2CCC(C)CC2)c(NC(=O)Nc2ccc(C)cc2)c1 (single isomer, unassigned) [Example 46 Enantiomer 2, 3-(4-(4-Methylpiperidin-1-yl)-3-(3-(p-tolyl)ureido)phenyl) pentanoic acid] | > 50 nM
CC(CC(=O)O)c1ccc(N(CC(C)(C)O)C2CCCCC2)c(Nc2ccc(Cl)cc2)c1 (single isomer, unassigned) [Example 48 Enantiomer 2, 3-(3-((4-Chlorophenyl)amino)-4-(cyclohexyl(2-hydroxy-2-methylpropyl)amino)phenyl)butanoic acid] | < 5 nM
CCC(CC(=O)O)c1ccc(N(CC)C2CCCOC2)c(Nc2ccc(C#N)cc2)c1 (single isomer, unassigned) [Example 64, 3-(3-((4-cyanophenyl)amino)-4-(ethyl (tetrahydro-2H-pyran-3-yl)amino)phenyl)pentanoic acid] | < 5 nM
CCOc1ncc(Nc2cc(C(CC)CC(=O)O)ccc2N(CC)C2CCCOC2)cn1 (single isomer, unassigned) [Example 66, 3-(3-((2-ethoxypyrimidin-5-yl)amino)-4-(ethyl(tetrahydro-2H-pyran-3-yl)amino)phenyl)pentanoic acid] | < 5 nM
CCC(CC(=O)O)c1ccc(N(CC)C2CCCOC2)c(Nc2ccc(C#N)cc2)c1 (single isomer, unassigned) [Example 67, 3-(3-((4-cyanophenyl)amino)-4-(ethyl (tetrahydro-2H-pyran-3-yl)amino)phenyl)pentanoic acid] | < 5 nM
CCOc1ncc(Nc2cc(C(CC)CC(=O)O)cc(F)c2N(CC)C2CCOCC2)cn1 (single isomer, unassigned) [Example 139, 3-(3-((2-ethoxypyrimidin-5-yl)amino)-4-(ethyl (tetrahydro-2H-pyran-4-yl)amino)-5-fluorophenyl)pentanoic acid] | < 5 nM
CCC(CC(=O)O)c1cc(F)c(N(CC)C2CCOCC2)c(Nc2ccc(C#N)cn2)c1 (single isomer, unassigned) [Example 143, 3-(3-((5-cyanopyridin-2-yl)amino)-4-(ethyl (tetrahydro-2H-pyran-4-yl)amino)-5-fluorophenyl)pentanoic acid] | < 5 nM
CCC(CC(=O)O)c1cc(F)c(N(CC)C2CCOCC2)c(Nc2ccc(Cl)cc2)c1 (single isomer, unassigned) [Example 144, 3-(3-((4-chlorophenyl)amino)-4-(ethyl (tetrahydro-2H-pyran-4-yl)amino)-5-fluorophenyl)pentanoic acid] | < 5 nM
CCN(c1ccc(C(COC)CC(=O)O)cc1Nc1ccc(C#N)cc1)C1CCS(=O)(=O)CC1 (single isomer, unassigned) [Example 169, 3-(3-((4-cyanophenyl)amino)-4-((1,1-dioxidotetrahydro-2H-thiopyran-4-yl)(ethyl)amino)phenyl)-4-methoxybutanoic acid] | > 50 nM
CCCN(c1ccc(C(COC)CC(=O)O)cc1Nc1ccc(F)cc1)C1CCS(=O)(=O)CC1 (single isomer, unassigned) [Example 186, 3-(4-((1,1-dioxidotetrahydro-2H-thiopyran-4-yl)(propyl)amino)-3-((4-fluorophenyl)amino)phenyl)-4-methoxybutanoic acid] | < 5 nM
C[C@@H]1CN(c2ccc(C(CC(=O)O)C3CC3)cc2Nc2ccc(Cl)cc2)C[C@H](C)O1 (single isomer, unassigned) [Example 248] | < 50 nM
CCOc1ncc(Nc2cc(C(CC(=O)O)C3CC3)ccc2N2C[C@@H](C)O[C@@H](C)C2)cn1 (single isomer, unassigned) [Example 249] | > 50 nM
Cc1ccc(NC(=O)Nc2cc(C(CC(=O)O)C3CC3)ccc2N2C[C@@H](C)O[C@@H](C)C2)cc1 (single isomer, unassigned) [Example 251 Enantiomer 2] | > 50 nM
C[C@@H]1CN(c2ccc(C(CC(=O)O)C3CC3)cc2NC(=O)Nc2ccc(Cl)cc2F)C[C@H](C)O1 (single isomer, unassigned) [Example 253] | > 50 nM
CCN(c1ccc(C(CC(=O)O)C2CC2)cc1NC(=O)Nc1ccc(C#N)cc1)C1CCOCC1 (single isomer, unassigned) [Example 255 Enantiomer 2, 3-(3-(3-(4-Cyanophenyl)ureido)-4-(ethyl(tetrahydro-2H-pyran-4-yl)amino)phenyl)-3-cyclopropylpropanoic acid] | > 50 nM
